In patent US7790751B2, “Azinyl-3-sulfonylindazole derivatives as 5-hydroxytryptamine-6 ligands” (Wyeth LLC, priority 2005, dated 2010):
Counter-ions that a name gives are not always drawn.

Key:
[1] = target: human cloned 5-HT6 receptors (Homo sapiens, UniProt P50406); assay: Evaluation of 5-HT6 binding affinity of test compounds ([3H]-LSD displacement)
human cloned 5-HT6 receptors, sequence (P50406 whole entry): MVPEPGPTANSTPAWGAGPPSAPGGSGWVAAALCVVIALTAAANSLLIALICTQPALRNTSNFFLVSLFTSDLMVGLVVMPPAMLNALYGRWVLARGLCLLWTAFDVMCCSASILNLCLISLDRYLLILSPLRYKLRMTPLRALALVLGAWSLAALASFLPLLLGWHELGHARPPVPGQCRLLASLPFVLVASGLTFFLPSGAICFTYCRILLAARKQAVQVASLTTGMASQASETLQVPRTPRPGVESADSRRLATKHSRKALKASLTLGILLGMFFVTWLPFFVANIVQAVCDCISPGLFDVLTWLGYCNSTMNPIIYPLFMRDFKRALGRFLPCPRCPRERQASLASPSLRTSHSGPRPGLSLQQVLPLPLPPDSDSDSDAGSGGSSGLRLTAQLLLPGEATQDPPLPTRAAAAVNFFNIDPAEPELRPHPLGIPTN

Row | SMILES | melting point | Ki [1] [nM]
1 | O=S(=O)(c1cccc2ccccc12)c1n[nH]c2ccc(OC3CCNC3)cc12 (centres unmarked) (as salt: hydrochloride) [Example 1, 3-(Naphthalene-1-sulfonyl)-5-(pyrrolidin-3-yloxy)-1H-indazole] | 168 to 170 °C (dec.) | 
2 | O=S(=O)(c1cccc2ccccc12)c1n[nH]c2ccc(OC3CCNCC3)cc12 (as salt: hydrochloride) [Example 6, 3-(1-Naphthylsulfonyl)-5-(piperidin-4-yloxy)-1H-indazole Hydrochloride] | 174 to 176 °C (dec.) | 
3 | CN1CCC(Oc2ccc3[nH]nc(S(=O)(=O)c4cccc5ccccc45)c3c2)CC1 (as salt: hydrochloride) [Example 21, 5-(1-Methylpiperidin-4-yloxy)-3-(1-naphthylsulfonyl)-1H-indazole Hydrochloride] | 252 to 254 °C | 
4 | O=S(=O)(c1cccc2ccccc12)c1n[nH]c2ccc(OCC3CCNCC3)cc12 [Example 27, 3-(1-naphthylsulfonyl)-5-(piperidin-4-ylmethoxy)-1H-indazole] | 175 to 177 °C | 11 to 25
5 | O=S(=O)(c1cccc2ccccc12)c1n[nH]c2ccc(OCC3CCCNC3)cc12 (centres unmarked) [Example 28, 3-(1-Naphthylsulfonyl)-5-(piperidin-3-ylmethoxy)-1H-indazole] | 168 to 170 °C | 0.01 to 10
6 | O=S(=O)(c1cccc2ccccc12)c1n[nH]c2ccc(OC3CCCNC3)cc12 (centres unmarked) [Example 29, 3-(1-Naphthylsulfonyl)-5-(piperidin-3-yloxy)-1H-indazole] | 178 to 180 °C | 0.01 to 10
7 | O=S(=O)(c1ccc(C(F)(F)F)cc1)c1n[nH]c2ccc(NC3CCNCC3)cc12 [Example 48, N-piperidin-4-yl-3-{[4-(trifluoromethyl)phenyl]sulfonyl}-1H-indazol-5-amine] |  | 0.01 to 10
8 | O=S(=O)(c1ccccc1)c1n[nH]c2ccc(NC3CCNCC3)cc12 [Example 49, 3-(phenylsulfonyl)-N-piperidin-4-yl-1H-indazol-5-amine] |  | 0.01 to 10
9 | COc1ccc(S(=O)(=O)c2n[nH]c3ccc(NC4CCNCC4)cc23)cc1 [Example 50, 3-[(4-methoxyphenyl)sulfonyl]-N-piperidin-4-yl-1H-indazol-5-amine] |  | 0.01 to 10
10 | Cc1cccc(S(=O)(=O)c2n[nH]c3ccc(NC4CCNCC4)cc23)c1 [Example 51, 3-[(3-methylphenyl)sulfonyl]-N-piperidin-4-yl-1H-indazol-5-amine] |  | 0.01 to 10
11 | O=C(Nc1ccc2[nH]nc(S(=O)(=O)c3cccc4ccccc34)c2c1)C1CCNCC1 [Example 52, N-[3-(1-Naphthylsulfonyl)-1H-indazol-5-yl]piperidine-4-carboxamide Hydrochloride] |  | 0.01 to 10
12 | O=C(Nc1ccc2c(S(=O)(=O)c3cccc4ccccc34)n[nH]c2c1)C1CCNCC1 [Example 53, N-[3-(1-Naphthylsulfonyl)-1H-indazol-6-yl]piperidine-4-carboxamide Dihydrochloride] |  | 26 to 35
13 | O=C(Nc1cccc2c(S(=O)(=O)c3cccc4ccccc34)n[nH]c12)C1CCNCC1 [Example 54, N-[3-(1-Naphthylsulfonyl)-1H-indazol-7-yl]piperidine-4-carboxamide Dihydrochloride] |  | 26 to 35
14 | O=C(Nc1cccc2c(S(=O)(=O)c3cccc4ccccc34)n[nH]c12)C1CCCNC1 (centres unmarked) [Example 55, N-[3-(1-Naphthylsulfonyl)-1H-indazol-7-yl]piperidine-3-carboxamide Dihydrochloride] |  | 0.01 to 10
